# Test results published in US20080076166A1, “Method For Producing Polyunsaturated Fatty Acids In Transgenic Organisms” (priority 2004, published 2008).
# Like-named read-outs stand apart in the source and are kept apart here.
# How the values were obtained:
# [1] = system: desaturase OtDes6.1 (Δ6-desaturase); type: cell-based, Ostreococcus tauri; conditions: for Activity in %: yeast transformed with pYES2-OtDes6.1, conversion rate [substrate/(substrate+product)*100], mean (n=3)
# Excerpt: (§1) The Saccharomyces cerevisiae strain 334 was transformed with the vector pYES2.1-OtD6.1 by electroporation (1500 V). A yeast which was transformed with the blank vector pYES2 was used as control. The transformed yeasts were selected on complete minimal dropout uracil medium (CMdum) agar plates supplemented with 2% glucose. After the selection, in each case three transformants were selected for the further functional expression.
# (§2) To express the OtD6.1 desaturase, precultures consisting of in each case 5 ml of CMdum dropout uracil liquid medium supplemented with 2% (w/v) raffinose were initially inoculated with the selected transformants and incubated for 2 days at 30° C. and 200 rpm. Then, 5 ml of CMdum (dropout uracil) liquid medium supplemented with 2% raffinose and 300 μM various fatty acids were inoculated with the precultures to an OD600 of 0.05. Expression was induced by the addition of 2% (w/v) galactose. The cultures were incubated for a further 96 hours at 20° C.
# The yeast cells from the main cultures were harvested by centrifugation (100×g, 5 min, 20° C.) and washed with 100 mM NaHCO3, pH 8.0 to remove residual medium and fatty acids. The yeast cell sediments were extracted for 4 hours using chloroform/methanol (1:1). The resulting organic phase was extracted with 0.45% NaCl, dried with Na2SO4 and evaporated in vacuo. Applying thin-layer chromatography (horizontal tank, chloroform:methanol:acetic acid 65:35:8), the lipid extract was separated further into the lipid classes phosphatidylcholine (PC), phosphatidylinosotol (PI), phosphatidylserine (PS), phsophatidylethanolamine (PE) and neutral lipids (NL). The various separated spots on the thin-layer plate were scraped off. For the gas-chromatographic analysis, fatty acid methyl esters (FAMEs) were prepared by acid methanolysis. To this end, the cell sediments were incubated for one hour at 80° C. together with 2 ml of 1 N methanolic sulfuric acid and 2% (v/v) dimethoxypropane. The FAMEs were extracted twice with petroleum ether (PE). To remove nonderivatized fatty acids, the organic phases were washed in each case once with 2 ml of 100 mM NaHCO3, pH 8.0 and 2 ml of distilled water. Thereafter, the PE phases were dried with Na2SO4, evaporated under argon and taken up in 100 μl of PE. The samples were separated on a DB-23 capillary column (30 m, 0.25 mm, 0.25 μm, Agilent) in a Hewlett-Packard 6850 gas chromatograph equipped with flame ionization detector. The conditions for the GLC analysis were as follows: the oven temperature was programmed from 50° C. to 250° C. with a 5° C./min increment and finally 10 min at 250° C. (holding).
# The signals were identified by comparing the retention times with corresponding fatty acid standards (Sigma). The methodology is described for example in Napier and Michaelson, 2001, Lipids. 36(8):761-766; Sayanova et al., 2001, Journal of Experimental Botany. 52(360):1581-1585, Sperling et al., 2001, Arch. Biochem. Biophys. 388(2):293-298 and Michaelson et al., 1998, FEBS Letters. 439(3):215-218.
# The substrate specificity of OtDes6.1 was determined after expression and after feeding various fatty acids. The substrates fed can be detected in large amounts in all of the transgenic yeasts. […]
# The yeasts which had been transformed with the vector pYES2-OtDes6.1 were grown in minimal medium in the presence of the stated fatty acids. […] Thereafter, the FAMEs were analyzed via GLC. […] The activity corresponds to the conversion rate calculated using the formula [[…]].
# [2] = system: elongase OtElo2 (Δ6-elongase); type: cell-based, Ostreococcus tauri
# Excerpt: as §1, with “pOTE1 or pOTE2, respectively,” for “pYES2.1-OtD6.1”
# as §2, with “express the Ot elongases, precultures consisting” for “express the OtD6.1 desaturase, precultures consisting”, “20° C. […]” for “20° C.”
# The substrate specificity of OtElo2 (SEQ ID NO: 1) was determined after expression and after feeding various fatty acids (Tab. 3). The substrates fed can be detected in large amounts in all of the transgenic yeasts. […]
# The yeasts which had been transformed with the vector pOTE2 were grown in minimal medium in the presence of the fatty acids stated. […] Thereafter, the FAMEs were analyzed by GLC. […]
# OtD6 + PSE1 + PtD5 = assay: Reconstitution of the PUFA biosynthesis in yeast, total fatty acids; type: cell-based; conditions: to DHGLA and DHSTA, FIG. 5
# Protocol: The yeast cells from the main cultures were harvested by centrifugation (100×g, 5 min, 20° C.) and washed with 100 mM NaHCO3, pH 8.0 to remove residual medium and fatty acids. The yeast cell sediments were extracted for 4 hours using chloroform/methanol (1:1). The resulting organic phase was extracted with 0.45% NaCl, dried with Na2SO4 and evaporated in vacuo. […] For the gas-chromatographic analysis, fatty acid methyl esters (FAMEs) were prepared by acid methanolysis. To this end, the cell sediments were incubated for one hour at 80° C. together with 2 ml of 1 N methanolic sulfuric acid and 2% (v/v) dimethoxypropane. The FAMEs were extracted twice with petroleum ether (PE). To remove nonderivatized fatty acids, the organic phases were washed in each case once with 2 ml of 100 mM NaHCO3, pH 8.0 and 2 ml of distilled water. Thereafter, the PE phases were dried with Na2SO4, evaporated under argon and taken up in 100 μl of PE. The samples were separated on a DB-23 capillary column (30 m, 0.25 mm, 0.25 μm, Agilent) in a Hewlett-Packard 6850 gas chromatograph equipped with flame ionization detector. The conditions for the GLC analysis were as follows: the oven temperature was programmed from 50° C. to 250° C. with a 5° C./min increment and finally 10 min at 250° C. […]
# The parameters measured were the total fatty acids.
# [3] = system: elongase OtElo1 (Δ5-elongase); type: cell-based, Ostreococcus tauri; conditions: for Conversion rate (in %): yeast transformed with pOTE1, grown in presence of the fatty acid, FAMEs by GLC, mean (n=3) ± standard deviation
# Excerpt: as §1, with “pOTE1 or pOTE2, respectively,” for “pYES2.1-OtD6.1”
# as §2, with “Ot elongases,” for “OtD6.1 desaturase,”
# The yeast cells from the main cultures were harvested by centrifugation (100×g, 5 min, 20° C.) and washed with 100 mM NaHCO3, pH 8.0 to remove residual medium and fatty acids. Starting with the yeast cell sediments, fatty acid methyl esters (FAMEs) were prepared by acid methanolysis. To this end, the cell sediments were incubated for one hour at 80° C. together with 2 ml of 1 N methanolic sulfuric acid and 2% (v/v) of dimethoxypropane. The FAMEs were extracted twice with petroleum ether (PE). To remove nonderivatized fatty acids, the organic phases were washed in each case once with 2 ml of 100 mM NaHCO3, pH 8.0 and 2 ml of distilled water. […]
# The substrate specificity of OtElo1 was determined after expression and after feeding various fatty acids (Tab. 2). The substrates fed can be detected in large amounts in all of the transgenic yeasts. […]
# The yeasts which had been transformed with the vector pOTE1 were grown in minimal medium in the presence of the fatty acids stated. […] Thereafter, the FAMEs were analyzed by GLC. […]
structure (smiles),measurement,setting,value
"CCCCCC/C=C\CCCCCCCC(=O)O [16:1^Δ9, palmitoleic acid]","Activity of OtDes6.1, in words",[1],markedly less pronounced
same,Activity in %,[1],5.6%
"CCCCC/C=C\C/C=C\CCCCCCCC(=O)O [18:2^Δ9,12, linoleic acid]","Activity of OtDes6.1, in words",[1],highest activities
same,Activity in %,[1],68.7%
"CCCCC/C=C\C/C=C\C/C=C\CCCCC(=O)O [18:3^Δ6,9,12, γ-linolenic acid]",Conversion rate (in %),[2],15.3%
same,Elongation of the OtDes6.1 reaction products in the presence of the Δ6-elongase PSE1,OtD6 + PSE1 + PtD5,almost quantitatively
"CC/C=C\C/C=C\C/C=C\CCCCCCCC(=O)O [18:3^Δ9,12,15, linolenic acid]",Activity in %,[1],64.6%
"CC/C=C\C/C=C\C/C=C\C/C=C\CCCCC(=O)O [18:4^Δ6,9,12,15, stearidonic acid]",Conversion rate (in %),"[2]; yeast transformed with pOTE2, grown in presence of the fatty acid, FAMEs by GLC, mean (n=3) ± standard deviation",21.1%
same,Elongation of the OtDes6.1 reaction products in the presence of the Δ6-elongase PSE1,OtD6 + PSE1 + PtD5,almost quantitatively
"CCCCC/C=C\C/C=C\C/C=C\C/C=C\CCCC(=O)O [20:4^Δ5,8,11,14, arachidonic acid]","Elongation by OtElo1, in words","[3]; Table 2, FIG. 2 and 3",capable of elongating
same,Conversion rate (in %),[3],10.8 ± 0.6%
"CC/C=C\C/C=C\C/C=C\C/C=C\C/C=C\CCCC(=O)O [20:5^Δ5,8,11,14,17, eicosapentaenoic acid]",Conversion rate (in %),[3],46.8 ± 3.6%
